SMILES strings stand for the structures. “Also recorded” adds a separate entry of the source.

Here are results for one molecule from patent EP1655608A1, “CFTR as a component of an autophagy signaling pathway, applications thereof to autophagic diseases, and determination of cystic fibrosis as an autophagic disease” (priority 2004, dated 2006).

One experiment concerns renal cells. As to the kind of experiment: Lindane-induced autophagic vacuolation of renal cells (electron microscopy). Format: cell-based, mouse. On the procedure: To address the importance of CFTR in autophagy, renal cells derived from distal tubules or the proximal convoluted tubules of Wild type (WT or CFTR^+/+) or CFTR deficient (CFTR^-/-) mice (40) were isolated and immortalized with the pSV3 neo vector, as described below (55).
The ultrastructural changes caused by Lindane or starvation in Sertoli and renal cells were analysed by transmission electron microscopy, as previously described (57). Briefly, control and Lindane-treated cells (50 µM, 24 h) were scraped from the culture dish in PBS EDTA 1mM, pelleted and fixed with ice-cold 2.5% glutaraldehyde (TAAB, #G004) in 0.1 M Na cacodylate, pH 7.4 for at least 1 h at 4°C. Cell pellets were then rinsed in cacodylate buffer, postfixed in 1% OsO4 for 1 h at 4°C, dehydrated through graded ethanol washes, and embedded in epoxy resin. Oriented […] sections were obtained with diamond knives, and representative areas were chosen for ultra-thin sectioning. Thin […] sections were mounted on copper mesh grids, stained with uranyl acetate and lead citrate, and examined on a JEOL 1200 EXII electron microscope. 30-50 micrographs were taken randomly from each sample at primary magnification × 10,000.

A further experiment concerns p42^ERK2 and p44^ERK1. As to the kind of experiment: ERK activation by anti-phospho-ERK Western blotting of cell lysates. In kind it is cell-based, mouse. The source says: After stripping, equal loadings of proteins were verified by reprobing the blots with anti-ERK1 (Santa Cruz Biotechnology).
Another experiment relates to PKA. The experiment in a line: CREB phosphorylation as readout of PKA activity. In kind it is cell-based. The source says:
The emerging issue is therefore how Lindane could activate CFTR Cl^- currents. One possibility would be that Lindane directly activates CFTR, but this appears unlikely because it required minutes instead of seconds to increase Cl^- conductance. […] To further explore this hypothesis, we tested the effect of Lindane on the renal proximal cell line (PCT1). […] Of particular interest, we provide several lines of evidence that the CFTR Δex10 channels remained functional in response to Lindane in PCT cells. […] These finding provide the first evidence that an agonist, e.g. Lindane, could activate CFTR Cl- current independently of PKA, raising the promise for new strategies using Lindane to restore Cl-conductance in cystic fibrosis patients with CFTR variants on PKA sites.

Consider `Cl[C@H]1[C@H](Cl)[C@@H](Cl)[C@@H](Cl)[C@H](Cl)[C@H]1Cl` [Lindane, γ-hexachlorocyclohexane], for which the “autophagic vacuolation in CFTR-expressing renal cells” value with renal cells (CFTR^+/+ renal cells) was “could be generalized to renal cells, provided CFTR was expressed”. In addition, in the experiment with renal cells (CFTR^-/- renal cells), the “response in renal cells lacking CFTR expression” value was “dramatic accumulation of lamellar structures and little if any large autophagic vacuoles”. In the experiment with p42^ERK2 and p44^ERK1 (CFTR^-/- renal cells), the “ERK stimulation in CFTR^-/- cells” value is “still stimulated”. Also, the “duration of ERK activation” value with p42^ERK2 and p44^ERK1 (Sertoli cells, Lindane) is on record as “more than 24 h”. Also, the “ERK activation in Sertoli cells” value with p42^ERK2 and p44^ERK1 (Sertoli cells, Lindane 50 µM, DDT 1.8 µM, Bϕ 90 µM, PCP 15 µM) is “rapid and sustained activation of both p42^ERK2 and p44^ERK1; also recorded: induced the activation of both p42^ERK2 and p44^ERK1”. Moreover, in the experiment with PKA (Lindane treatment), the CREB phosphorylation result is listed as “dramatic phosphorylation of CREB”. Moreover, in the experiment on PKA (concluded from H89 experiment), the PKA activation result is recorded as “did not activate PKA”.
